Measured values: US8507464B2, “Phosphoramidate alkylator prodrugs” (Threshold Pharmaceuticals, Inc., priority 2005, dated 2013)
Read-outs that look alike come from different tables or passages of the source.

Key:
[1] = system: HT-29 human colon carcinoma xenograft; test: HT-29 human colon carcinoma xenograft mouse model (Example 47); format: in vivo; details: Group 8: 5FU 10 mg/kg; vs vehicle
Experimental: Female CB17/SCID mice (purchased from Charles River, Cambridge, Mass.), 7-8 weeks of age, were allowed to acclimatize for at least three days, and handled under pathogen-free conditions. Human colon carcinoma cell line HT-29 was obtained from the American Type Culture Collection. The cell lines were cultured in RPMI 1640 media supplemented with 10% fetal bovine serum. Cells were maintained in a 37° C. incubator with 5% CO2. The HT-29 cells were harvested from culture and inoculated at 3×10^6 cells/animal in the peritoneal subcutaneous space. When the tumors grew to an average volume of 100 mm^3 (day 8), each group of 10 mice was administered, for three weeks, vehicle alone (saline and PEG (10 mL/kg each), Group 1), Compound 36 alone (dissolved in 30% cyclodextrin in PBS) at a daily dose of 20, 60, or 200 mg/kg (Groups 2, 3 and 4, respectively), and Compound 36 at a daily dose of 20, 60, and 200 mg/kg given 2-3 hours after a dose of 10 mg/kg of 5FU (in saline) (Group 5, 6 and 7, respectively) and compared to a group receiving only 5FU at 10 mg/kg (Group 8) as tabulated below.
The body weight of each mouse was recorded twice per week. Growth of each xenograft was monitored by externally measuring tumors in two dimensions using a digital caliper twice per week. Tumor volume (V) was determined by the following equation: V=(L×W^2)/2, where L is the length and W is the width of a xenograft. Tumor volumes were measured twice weekly.

[2] = format: physicochemical; details: glassy carbon, Ag/AgCl reference; for Reduction Potentials, 100 mV/sec: scan rate 100 mV/sec; for Reduction Potentials, 10,000 mV/sec: scan rate 10,000 mV/sec
in vivo [3] = details: CD-1, mouse, 50 mg/kg
in vivo [4] = test: in vivo
[5] = system: mouse (MLM) liver microsomal proteins; format: in vitro ADME; details: Table 2B
HT29 = test: Anti-proliferation assay, hypoxia vs normoxia (Table 1B); details: for IC50: Homo sapiens
NCI-H460 cells [6] = test: Antiproliferation assay (Alamar Blue), anoxia vs air
H460 cell line = test: Anti-proliferation assay, hypoxia vs normoxia (Table 1A); details: for IC50: Homo sapiens; for HCR P: ratio of IC50 in normoxia and hypoxia
NCI-H460 cells [7] = test: Antiproliferation assay - oxygen dependence; format: cell-based, human
Excerpt: . […] The calculated IC50 values (μM) are tabulated in Table Y1 (H460 cells) or Table Y2 (HT29 cells) below.

HT29 cells = test: Antiproliferation assay (Alamar Blue), anoxia vs air; details: Homo sapiens, HT-29, 2 h
[8] = Plasma stability (Table 2B)
MES-SA cells = test: Antiproliferation assay (Alamar Blue), anoxia vs air; details: Homo sapiens, 2 h
HCT116 = test: Anti-proliferation assay, hypoxia vs normoxia (Table 1B); details: for IC50: Homo sapiens
[9] = system: H460 lung carcinoma spheroids; test: Spheroid model, clonogenic survival; details: read-out: IC90 H460 Spheroid 10% O2
NCI-H460 cells [10] = test: Clonogenic assay - oxygen dependence; details: Homo sapiens
[11] = system: H460 cells exposed as monolayers; test: Clonogenic survival of monolayer cells (Example 35); details: Homo sapiens, NCI-H460, 2 h
[12] = CD-1, Balb/c for Compound 1, mouse, iv
[13] = HT-29, read-out: HT29 P H (proliferation IC50, hypoxia)
[14] = HT-29, read-out: HT29 P N (proliferation IC50, normoxic)
[15] = Homo sapiens, NCI-H460, 2 h, read-out: IC50 H460 Air, air, 2 h exposure
[16] = Homo sapiens, NCI-H460, 2 h, read-out: IC50 H460 Anoxia, anoxia, 2 h exposure
[17] = NCI-H460, read-out: Hypoxia P (proliferation IC50)
[18] = NCI-H460, read-out: Normoxia P (proliferation IC50)
[19] = Homo sapiens, NCI-H460, read-out: IC50 in H460 cells, 0.6% O2
[20] = Homo sapiens, NCI-H460, read-out: IC50 in H460 cells, 1% O2
[21] = Homo sapiens, NCI-H460; read-out: IC50 in H460 cells, Air
[22] = Homo sapiens, NCI-H460; read-out: IC50 in H460 cells, N2
[23] = Homo sapiens, NCI-H460, read-out: IC50 in H460 cells, 0.3% O2
[24] = Homo sapiens, NCI-H460, read-out: IC50 in H460 cells, Air
[25] = Homo sapiens, NCI-H460, read-out: IC50 in H460 cells, N2
[26] = read-out: IC50 H460 Air, air, 2 h exposure
[27] = NCI-H460, read-out: IC90 H460 0.6% O2
[28] = NCI-H460, read-out: IC90 H460 Air
[29] = NCI-H460, read-out: IC90 H460 N2
[30] = read-out: IC90 H460 Monolayer N2

O=c1[nH]cc(F)c(=O)[nH]1 [Compound 5FU, 5-fluoro-2,4(1H,3H)-pyrimidinedione, reference compound]
% Inhibition vs Group 1 [1]: 38.7%

CN(CCCl)P(=O)(OCc1cnc([N+](=O)[O-])n1C)N(C)CCCl [Compound 5]
Reduction Potentials, 100 mV/sec [2]: −606 mV
Reduction Potentials, 10,000 mV/sec [2]: −634 mV
AUC (in vivo [3]; ip): 57400 ng·h/mL
Cmax (in vivo [3]; ip): 3000 ng/mL
Tmax (in vivo [3]; ip): 5 min
half-life (in vivo [3]; ip): 2.56 min
AUC (in vivo [3]; iv): 270000 ng·h/mL
Cmax (in vivo [3]; iv): 16900 ng/mL
Tmax (in vivo [3]; iv): 5 min
half-life (in vivo [3]; iv): 4.67 min
clearance (in vivo [4]; CD-1 (Compounds 5, 23, 36), Balb/c (Compound 1), mouse, iv): 185 mL/min/kg
Cmax (in vivo [4]; CD-1, Balb/c for Compound 1, mouse, ip): 3000 ng/mL
AUC (in vivo [4]; [12]): 4500 ng·h/mL
Cmax (in vivo [4]; [12]): 16900 ng/mL
Vd (in vivo [4]; [12]): 1.25 L/kg
half-life (in vivo [4]; CD-1, Balb/c for Compound 1, mouse, iv, t ½, intravenous administration in mice, mice): 4.8 min
AUC (in vivo [4]; CD-1, mouse, ip): 1000 ng·h/mL
Metabolic stability (MLM) (% at 30 min) [5]: 5%
Metabolic stability (MLM), value in parentheses ([5]; parentheses not explained): (20) %
HT29 HCR P (HT29): >10
IC50 (HT29; [13]): 10 µM
IC50 (HT29; [14]): > 100 µM
IC50 (NCI-H460 cells [6]; [15]): 6 µM
IC50 (NCI-H460 cells [6]; [16]): 0.05 µM
IC50 (H460 cell line; [17]): 4.5 µM
IC50 (H460 cell line; [18]): 3.5 µM
HCR P (H460 cell line): 1
IC50 (NCI-H460 cells [7]; Homo sapiens, NCI-H460, read-out: IC50 in H460 cells, 0.1% O2): 1 µM
IC50 (NCI-H460 cells [7]; [19]): 1 µM
IC50 (NCI-H460 cells [7]; [20]): 10 µM
IC50 (NCI-H460 cells [7]; Homo sapiens, NCI-H460, read-out: IC50 in H460 cells, 10% O2): 5 µM
IC50 (NCI-H460 cells [7]; [21]): 40 µM
IC50 (NCI-H460 cells [7]; [22]): 0.03 µM
IC50 (HT29 cells; read-out: IC50 HT29 Air): > 100 µM
IC50 (HT29 cells; read-out: IC50 HT29 Anoxia): 10 µM
Plasma stability (% at 30 min) [8]: 100%
Plasma stability, value in parentheses ([8]; parentheses not explained): (85) %

O=[N+]([O-])c1ccc(COP(=O)(NCCBr)NCCBr)s1 [Compound 34]
IC50 (MES-SA cells; read-out: IC50 MES-SA Air): 10 µM
IC50 (MES-SA cells; read-out: IC50 MES-SA Anoxia): 0.13 µM
Reduction Potentials, 100 mV/sec [2]: −584 mV
Reduction Potentials, 10,000 mV/sec [2]: −663 mV
Metabolic stability (MLM) (% at 30 min) [5]: 28%
HT29 HCR P (HT29): 70
IC50 (HT29; [13]): 0.8 µM
IC50 (HT29; [14]): 57 µM
IC50 (NCI-H460 cells [6]; [15]): 1.8 µM
IC50 (NCI-H460 cells [6]; [16]): 0.01 µM
HCT116 HCR (HCT116): 77
IC50 (HCT116; HCT-116, read-out: HCT116 P H (proliferation IC50, hypoxia)): 0.13 µM
IC50 (HCT116; HCT-116, read-out: HCT116 P N (proliferation IC50, normoxic)): 10 µM
IC50 (H460 cell line; [17]): < 0.01 µM
IC50 (H460 cell line; [18]): 1.8 µM
HCR P (H460 cell line): >180
IC50 (NCI-H460 cells [7]; [23]): 1 µM
IC50 (NCI-H460 cells [7]; [24]): 5 µM
IC50 (NCI-H460 cells [7]; [25]): 0.01 µM
IC50 (HT29 cells; read-out: IC50 HT29 Air): 57 µM
IC50 (HT29 cells; read-out: IC50 HT29 Anoxia): 0.8 µM
Plasma stability (at 20 min) ([8]; at 20 min): 85%

Cn1c(COP2(=O)N(CCBr)CCCN2CCBr)cnc1[N+](=O)[O-] [Compound 35]
IC50 (MES-SA cells; read-out: IC50 MES-SA Air): 100 µM
IC50 (MES-SA cells; read-out: IC50 MES-SA Anoxia): 1 µM
IC90 ([9]; Homo sapiens, NCI-H460, 2 h): 22 µM
Metabolic stability (MLM) (% at 30 min) [5]: 56%
IC50 (NCI-H460 cells [6]; [15]): 50 µM
IC50 (NCI-H460 cells [6]; [16]): 0.075 µM
IC50 (NCI-H460 cells [6]; [26]): 55 µM
IC50 (H460 cell line; [17]): 0.075 µM
IC50 (H460 cell line; [18]): 50 µM
HCR P (H460 cell line): 625
IC50 (NCI-H460 cells [7]; [23]): 6 µM
IC50 (NCI-H460 cells [7]; [19]): 5 µM
IC50 (NCI-H460 cells [7]; [20]): 40 µM
IC50 (NCI-H460 cells [7]; [21]): 50 µM
IC50 (NCI-H460 cells [7]; [22]): 0.05 µM
IC50 (HT29 cells; read-out: IC50 HT29 Air): > 100 µM
IC50 (HT29 cells; read-out: IC50 HT29 Anoxia): 1.8 µM
IC90 (NCI-H460 cells [10]; [27]): 3 µM
IC90 (NCI-H460 cells [10]; [28]): 30 µM
IC90 (NCI-H460 cells [10]; [29]): 0.5 µM
Plasma stability (% at 30 min) [8]: 85%

COC(=O)c1cc(C(C)OP(=O)(NCCBr)NCCBr)ccc1OCc1cnc([N+](=O)[O-])n1C (centres unmarked) [Compound 70]
IC90 [11, 30]: 1.25 µM
IC90 ([9]; Homo sapiens, NCI-H460, 2 h): 25.5 µM
IC50 (NCI-H460 cells [6]; [15]): 65 µM
IC50 (NCI-H460 cells [6]; [16]): 2 µM
IC50 (NCI-H460 cells [7]; [19]): 30 µM
IC50 (NCI-H460 cells [7]; [24]): 65 µM
IC50 (NCI-H460 cells [7]; [25]): 2 µM
IC90 (NCI-H460 cells [10]; [27]): 8 µM
IC90 (NCI-H460 cells [10]; [28]): 20 µM
IC90 (NCI-H460 cells [10]; [29]): 2 µM

N#Cc1cc(COP(=O)(NCCBr)NCCBr)sc1[N+](=O)[O-] [Compound 97]
IC90 ([9]; 2 h exposure, 10% O2): 13 µM
IC50 (NCI-H460 cells [6]; [26]): 0.1 µM
IC50 (NCI-H460 cells [6]; read-out: IC50 H460 Anoxia, anoxia, 2 h exposure): 0.01 µM
IC50 (NCI-H460 cells [7]; Air; read-out: IC50 in H460 cells, Air): 0.02 µM
IC50 (NCI-H460 cells [7]; N2; read-out: IC50 in H460 cells, N2): 0.006 µM
IC50 (NCI-H460 cells [7]; read-out: IC50 in H460 cells, 0.6% O2): 0.01 µM

Nc1n[n+]([O-])c2ccccc2[n+]1[O-] [Tirapazamine, reference compound]
IC90 ([11]; read-out: IC90 H460 Monolayer 0.6% O2): 27 µM
IC90 ([11]; read-out: IC90 H460 Monolayer Air): > 100 µM
IC90 [11, 30]: 14 µM
IC90 ([9]; Homo sapiens, NCI-H460, 2 h): > 200 µM
